Reference: patent US9370517B2, “Substituted pyrazolopyrimidines as Akt kinase inhibitors” (Bayer Intellectual Property GmbH, priority 2012, dated 2016)

How the values were obtained:
[1] = molecular target: T1, His-tagged human recombinant kinase full-length Akt1 (Homo sapiens, UniProt P31749); experiment: Akt1 kinase assay (TR-FRET); type: biochemical; conditions: 10 μM ATP, 60 min at 22° C.; read-out: Akt1, median IC50
T1 construct: His-tagged human recombinant kinase full-length Akt1; His; purchased Invitrogen PV 3599; host or cells: insect cells
Description: Biological Assay 1.0: Akt1 Kinase Assay
Akt1 inhibitory activity of compounds of the present invention was quantified employing the Akt1 TR-FRET assay as described in the following paragraphs.
(§1) His-tagged human recombinant kinase full-length Akt1 expressed in insect cells was purchased form Invitrogen (part number PV 3599). As substrate for the kinase reaction the biotinylated peptide biotin-Ahx-KKLNRTLSFAEPG (SEQ ID NO: 1) (C-terminus in amide form) was used which can be purchased e.g. from the company Biosynthan GmbH (Berlin-Buch, Germany).
(§2) For the assay 50 nl of a 100fold concentrated solution of the test compound in DMSO was pipetted into a black low volume 384well microtiter plate (Greiner Bio-One, Frickenhausen, Germany), 2 μl of a solution of Akt1 in assay buffer [50 mM TRIS/HCl pH 7.5, 5 mM MgCl2, 1 mM dithiothreitol, 0.02% (v/v) Triton X-100 (Sigma)]were added and the mixture was incubated for 15 min at 22° C. to allow prebinding of the test compounds to the enzyme before the start of the kinase reaction. Then the kinase reaction was started by the addition of 3 μl of a solution of adenosine-tri-phosphate (ATP, 16.7 μM=>final conc. in the 5 μl assay volume is 10 μM) and substrate (1.67 μM=>final conc. in the 5 μl assay volume is 1 μM) in assay buffer and the resulting mixture was incubated for a reaction time of 60 min at 22° C. […]
(§3) The resulting mixture was incubated 1 h at 22° C. to allow the binding of the biotinylated phosphorylated peptide to the streptavidine-XL665 and the antibodies. Subsequently the amount of phosphorylated substrate was evaluated by measurement of the resonance energy transfer from the anti-mouse-IgG-Eu-Chelate to the streptavidine-XL665. Therefore, the fluorescence emissions at 620 nm and 665 nm after excitation at 350 nm was measured in a HTRF reader, e.g. a Rubystar (BMG Labtechnologies, Offenburg, Germany) or a Viewlux (Perkin-Elmer). […]

[2] = molecular target: T2, His-tagged human recombinant kinase full-length Akt2 (Homo sapiens, UniProt P31751); experiment: Akt2 kinase assay (TR-FRET); type: biochemical; conditions: 10 μM ATP, 60 min at 22° C.; read-out: Akt2, median IC50
T2 construct: His-tagged human recombinant kinase full-length Akt2; His; purchased Invitrogen PV 3975; host or cells: insect cells
Description: Biological Assay 2.0: Akt2 Kinase Assay
Akt2 inhibitory activity of compounds of the present invention was quantified employing the Akt2 TR-FRET assay as described in the following paragraphs.
as §1, with “full-length Akt2” for “full-length Akt1”, “cells and activated by PDK1” for “cells”, “purchased from” for “purchased form”, “PV 3975).” for “PV 3599).”
as §2, with “Akt2” for “Akt1”, “(Sigma)] were” for “(Sigma)]were”
as §3, with “TR-FRET” for “HTRF”

[3] = test system: p-AKT1/2/3-S473; experiment: Cellular p-AKT1/2/3-S473 assay in KPL-4 cells; type: cell-based; conditions: Homo sapiens, KPL4, read-out: pAKT-S473 median IC50, 2 hours treatment, read-out: pAKT-S743 median IC50
Description: (§4) The molecular mechanism of action was investigated in a set of experiments to assess the inhibition of the PI3K-AKT-mTOR pathway in responsive cell lines such as KPL-4 breast tumour cell line (PIK3CA^H1047R, HER2^O/E and hormone independent). The phospho-substrates of PI3K-AKT-mTOR axis were used as the readouts to reflect pathway inhibition. Cells were seeded at 60-80% confluency per well in 96-well cell culture plates. After overnight incubation at 37° C. 5% CO2, cells were treated with compounds and vehicle at 37° C. for 2 hours. Thereafter, cells were lysed in 150 μl lysis buffer and the levels of phospho-AKT at 1308 and S473 and p-4E-BP1 at T70 sites were determined with the corresponding AlphaScreen® SureFire® assay kits (Perkin Elmer: 4E-BPI Assay Kit Cat # TRG4E2S10K; Akt 1/2/3 p-Ser 473 #TGRA4S500 and Akt 1/2/3 p-Thr 308 #TGRA3S500 as well as IgG detection Kit #6760617M) as described in the manuals. All measurements where at least done in duplicates and confirmed by independent repetition. Alternatively pAKT-S473 was measured using the “Akt Duplex” of the MULTI-SPOT® Assay System (Fa. Meso Scale Discovery, Cat# N41100B-1) following manufacturers instructions. Each assay used 20 μg of protein extract and measured total AKT and p-AKT content simultaneously in one well. All measurements where at least done in duplicates and confirmed by independent repetition. Values for P-AKT are expressed as percentage of P-AKT level compared to total-AKT content of the extracts.

[4] = test system: p-4E-BP1-T70; experiment: Cellular p-4E-BP1-T70 assay in KPL-4 cells; type: cell-based; conditions: Homo sapiens, KPL4, 2 hours treatment, read-out: P4EBP1-T70 median IC50
Description: as §4

[5] = test system: KPL-4 breast cancer cell line; experiment: Tumor cell proliferation assay (CellTiter-Glo), KPL-4; type: cell-based; conditions: Homo sapiens, KPL4, 72 h drug exposure; for inhibition at 1.67 µM: read-out: KPL-4 median inhibition at 1.67 μM (%)
Description: (§5) Biological Assay 4.0: Tumor Cell Proliferation Assays
(§6) Compounds were tested in a cell-based assay that measures the capacity of the compounds to inhibit tumour cell proliferation following a 72 h drug exposure. Cell viability is determined using CellTiter-Glow® (CTG, Promega, cat# G7571/2/3). The CellTiter-Glo® Luminescent Cell Viability Assay is a homogeneous method to determine the number of viable cells in culture. Detection is based on using the luciferase reaction to measure the amount of ATP from viable cells. The amount of ATP in cells correlates with cell viability. Within minutes after a loss of membrane integrity, cells lose the ability to synthesize ATP, and endogenous ATPases destroy any remaining ATP; thus the levels of ATP fall precipitously.
(§7) Cells were plated at 3000-5000 cells/well (depending on the cell lines) in 90 μL growth medium on MTPs (Corning; #3603, black plate, clear flat bottom). For each cell line assayed, cells were plated onto a separate plate for determination of […] at t=0 hour and t=72 hour time points. Following overnight incubation at 37° C., chemiluminescence values for the t=0 samples were determined after adding 10 μl medium and 100 μl CTG solution according to manufacture protocol. Plates for the t=72 hour time points were treated with compounds diluted into growth medium at ten times final concentration added in 10 μL to the cell culture plate. Cells were then incubated for 72 hours at 37° C. Chemiluminescence values for the t=72 hour samples were determined. […] Experiments were controlled using a reference compound as standard.
(§8) Preferred compounds of the present invention show in this assay an inhibition of cell growth of cell lines such as the KPL-4 breast cancer cell line and the MCF-7 breast tumour cell line ([…], hormone dependent) with a median IC50 of <10 μM, more preferably, median IC50≦1 μM.

[6] = test system: MCF-7 breast tumour cell line; experiment: Tumor cell proliferation assay (CellTiter-Glo), MCF-7; type: cell-based; conditions: Homo sapiens, MCF7, 72 h drug exposure; for inhibition at 1.67 µM: read-out: MCF-7 median inhibition at 1.67 μM (%)
Description: as §5, §6, §7, §8

T1 sequence (P31749 whole entry): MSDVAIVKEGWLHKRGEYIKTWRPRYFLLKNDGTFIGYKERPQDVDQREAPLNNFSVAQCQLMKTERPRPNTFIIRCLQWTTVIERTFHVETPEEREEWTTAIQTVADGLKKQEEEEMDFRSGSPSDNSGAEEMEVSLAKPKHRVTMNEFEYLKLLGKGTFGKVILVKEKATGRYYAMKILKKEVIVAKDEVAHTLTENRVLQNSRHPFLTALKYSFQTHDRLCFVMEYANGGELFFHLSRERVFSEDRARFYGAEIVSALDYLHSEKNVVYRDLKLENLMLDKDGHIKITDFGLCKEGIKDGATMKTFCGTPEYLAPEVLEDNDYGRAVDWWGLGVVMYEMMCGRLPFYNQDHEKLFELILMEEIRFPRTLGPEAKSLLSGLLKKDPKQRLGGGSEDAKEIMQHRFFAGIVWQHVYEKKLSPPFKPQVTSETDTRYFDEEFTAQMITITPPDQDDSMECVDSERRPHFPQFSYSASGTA
T2 sequence (P31751 whole entry): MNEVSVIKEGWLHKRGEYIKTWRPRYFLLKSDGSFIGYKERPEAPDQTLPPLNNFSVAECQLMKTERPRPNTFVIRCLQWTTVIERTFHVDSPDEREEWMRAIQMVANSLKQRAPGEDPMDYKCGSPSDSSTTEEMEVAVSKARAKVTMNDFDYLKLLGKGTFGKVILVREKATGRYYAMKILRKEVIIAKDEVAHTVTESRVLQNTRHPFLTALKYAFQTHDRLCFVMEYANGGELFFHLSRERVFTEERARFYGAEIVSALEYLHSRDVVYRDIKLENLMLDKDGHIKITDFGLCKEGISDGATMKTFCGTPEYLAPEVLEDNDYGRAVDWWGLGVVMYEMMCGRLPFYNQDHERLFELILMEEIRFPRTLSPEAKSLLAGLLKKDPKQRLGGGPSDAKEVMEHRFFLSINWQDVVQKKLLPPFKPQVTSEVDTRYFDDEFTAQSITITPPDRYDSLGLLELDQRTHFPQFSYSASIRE

IC50 [1] [µM]	IC50 [2] [µM]	IC50 [3] [µM]	IC50 [4] [µM]	IC50 [5] [µM]	IC50 [6] [µM]	SMILES	inhibition at 1.67 µM [5] [%]	inhibition at 1.67 µM [6] [%]
0.066	0.46	0.13	1.8	1.9	1.8	Cc1cc(C)n2nc(-c3ccc(C4(N)CCC4)cc3)c(-c3ccccc3)c2n1 [Example 1, 1-[4-(5,7-Dimethyl-3-phenylpyrazolo[1,5-a]pyrimidin-2-yl)-phenyl]cyclobutanamine]	29.8	47.4
0.41	0.41	1.7	3.7	2.2	2	CCc1cc(CC)n2nc(-c3ccc(C4(N)CCC4)cc3)c(-c3ccccc3)c2n1 [Example 2, 1-[4-(5,7-Diethyl-3-phenylpyrazolo[1,5-a]pyrimidin-2-yl)phenyl]-cyclobutanamine]	7.1	24.5
0.32	0.86	1.8	3.3	2.4	2	NC1(c2ccc(-c3nn4c(C(F)(F)F)cc(C(F)(F)F)nc4c3-c3ccccc3)cc2)CCC1 [Example 3, 1-{4-[3-Phenyl-5,7-bis(trifluoromethyl)pyrazolo[1,5-a]pyrimidin-2-yl]phenyl}cyclobutanamine]	6.6	25.6
